Measurements from patent publication US12016860B2, “Combination therapies with Cbl-b inhibitor compounds” (Nurix Therapeutics, Inc., priority 2021, dated 2024).

Experiments:
[1] = test system: CT26 tumors; experiment: CT26 tumor volume in mice, single agent oral dosing; format: in vivo; conditions: oral administration in mice; colon carcinoma model CT26
Description: Mice bearing tumors on their left and right flanks were treated from Day 7 to Day 32 with oral compound 23 at 10 mg/kg (blue circles) or 30 mg/kg (red circles) or vehicle (black squares). Volumes at Day 25 are indicated. Statistics were calculated with one-way ANOVA and Dunn's multiple comparisons test **P≤0.01.

[2] = test system: 4T1 tumors; experiment: 4T1 metastatic breast carcinoma survival model with primary tumor resection; format: in vivo, mice
From the text: Another in vivo study evaluated the ability of compound 23 treatment, started before the primary tumor resection, to eradicate 4T1 breast carcinoma metastatic disease. The 4T1 triple negative mammary carcinoma is a transplantable tumor cell line that is highly tumorigenic and invasive and, unlike most tumor models, spontaneously metastasizes from a primary tumor growing in the mammary gland to multiple distant sites including lymph nodes, blood, liver, lung, brain, and bone. Tumor cells are easily transplanted into the mammary glands so that the primary tumor grows in the anatomically relevant site. The progressive spread of 4T1 metastases to other organs is very similar to that of human mammary cancer. Animals die from disseminated metastatic disease regardless of resection of the primary tumor (Pulaski et al., 2000, Current Protocols in Immunology 39(1):20.2.1-20.2.16). […] Beginning on Day 7, tumor volumes were measured twice weekly until they reached a mean tumor volume of 145 mm^3 when the primary tumors were resected on Day 14 and 15 (dotted line). Median survival time were calculated for each group and body weights were monitored until the end of the study on Day 140. Body weights were measured twice weekly then once weekly starting Day 47. […] Statistical significance of differences in conditional survival between groups was evaluated using the Log-rank (Mantel-Cox) test. […] Median survival is reported as undefined for the compound 23 group, as survival exceeds 50% at Day 140.

[3] = test system: CT26 tumors; experiment: CT26 model, combination with anti-PD-1 antibody; format: in vivo, mice
Description: (§1) This example provides assays and results for treating tumor models in vivo with combinations of Cbl-b compounds and anti-PD1 antibodies as described herein. The antibody is a mouse anti-PD1 RMP1-14 antibody, useful in mouse in vivo assays as model for administration of human PD-1 axis antagonists for treatment of human cancer.
FIG. 6 provides results in three tumor models. […] Beginning on Day 10, tumor volumes were measured twice weekly.

[4] = test system: orthotopic 4T1 tumors; experiment: Orthotopic 4T1 model, combination with anti-PD-1 antibody; format: in vivo, mice
Description: as §1
Beginning on Day 9, tumor volumes and body weights were measured twice weekly. […] Statistical significance of differences in the number of colonies between groups was evaluated using Kruskal-Wallis one-way ANOVA with Dunn's multiple comparisons test.

[5] = test system: BT549 (BRCA wild type) cells; experiment: Caspase 3/7 apoptosis Incucyte assay with olaparib, BT549; format: cell-based; conditions: 1 μM compound 23, 0.05 μM olaparib, vs 0.05% DMSO, combination also vs single agents p<0.0001
Description: (§2) BT549 (BRCA wild type) (A) and DoTc 4510 (BRCA2 mutated) (B) cells were seeded in duplicate into tissue culture treated black-sided, clear-bottom 96-well plates at 5,000^cells/well and allowed to adhere and establish for 24 h. Cells were treated with indicated concentrations of DMSO, compound 23, or Olaparib (FIGS. 13A and 13B) either alone or in combination and were labelled with 1× Essen Bioscience IncuCyte® Caspase-3/7 Green Reagent (final concentration 5 μM). Treated plates were imaged every 2 hours for 72 hours with the IncuCyte® S3 Live-Cell Analysis System. At each timepoint, one image per well was taken in both brightfield and FITC channels on the IncuCyte® S3 Live-Cell Analysis System. Images were analyzed for number of green objects per mm^2 using the IncuCyte S3 v2017A software.
Using a caspase 3/7 apoptosis Incucyte assay, the effect of compound 23, PARPi and the combination of compound 23, and PARPi on tumor cell apoptosis was assessed in both BRCA wild type and mutated tumor cell lines in vitro.

[6] = test system: DoTc 4510 (BRCA2 mutated) cells; experiment: Caspase 3/7 apoptosis Incucyte assay with olaparib, DoTc 4510; format: cell-based; conditions: vs 0.05% DMSO, combination also vs single agents p<0.0001
Description: as §2

[7] = test system: Raji cells; experiment: Raji human non-Hodgkin's lymphoma model in SCID mice, combination with rituximab
Description: Female CB17 mice with severe combined immunodeficiency (SCID) were intravenously (IV) injected in the tail vein with Raji cells on Day 0 and treated from Day 5 to Day 37 by administration of either: vehicle (0.5% methylcellulose, 0.2% Polysorbate 80 in deionized water+1 eq HCl) daily, orally (PO) or compound 23 at 30 mg/kg daily, PO. Anti-CD20 antibody (rituximab) at 20 mg/kg was intraperitoneally (IP) administered on Day 5, 10, and 15, either alone or in combination with compound 23 at 30 mg/kg daily, PO.

In the case of `C[C@H]1CCCN(Cc2cc3c(c(C(F)(F)F)c2)CN(c2cccc([C@]4(c5nncn5C)C[C@@H](C)C4)c2)C3=O)C1` [compound 23], the anti-tumor activity [1] is reported as “significant anti-tumor activity”, the “median survival time compared to vehicle control” value ([2]; 30 mg/kg daily PO Day 8 to 46, primary tumors resected Day 14 and 15) is reported as “significantly increased” and the median survival ([2]; 30 mg/kg daily PO, study end Day 140) is reported as “undefined”. For the same molecule, the anti-tumor activity ([2]; oral administration in mice, metastatic triple negative breast tumor model 4T1) was “significant anti-tumor activity”, the “interaction with PD-1 antibody blockade” value [3] was “synergizes” and the TGI ([3]; compared to vehicle controls, compound 23 30 mg/kg daily PO, anti-PD-1 10 mg/kg twice weekly IP) was 62%. The “tumor volume compared to vehicle controls” value ([3]; compound 23 30 mg/kg daily PO) was “significantly reduced tumor volume”, the median survival time ([3]; compound 23 30 mg/kg daily PO, anti-PD-1 10 mg/kg twice weekly IP, controls 27 days) was 38 days and the “interaction with PD-1 antibody blockade” value [4] was “synergizes”. For the same molecule, the “metastatic lung tumor burden” value ([4]; lungs harvested Day 28, single agents vs vehicle, combination vs vehicle or either single agent) was “reduced metastatic lung tumor burden”, the primary tumor volume ([4]; single agents vs vehicle, combination vs vehicle or either single agent) was “significantly smaller primary tumors” and the “tumor cell apoptosis (caspase 3/7)” value [5] was “did not undergo a significant increase in apoptosis”. The “tumor cell apoptosis (caspase 3/7)” value [6] was “did not significantly increase tumor cell apoptosis”, the “survival compared to untreated mice” value ([7]; compound 23 30 mg/kg daily PO, rituximab 20 mg/kg IP Day 5, 10, 15, p<0.0001) was “significantly higher” and the “survival compared to mice treated with the combination of compound 23 and rituximab” value ([7]; p<0.0001) was “significantly lower”.
